Tests used:
[1] = cited from earlier work
[2] = Quantification of exchange rates (QUESP, Bloch equation fitting); type: physicochemical; conditions: 11.7 T, pH 7.4, 37° C.
Method: Exchange rates were quantified with the saturation power dependent CEST approach (QUESP) and Bloch equation fitting (McMahon et al., Magn. Res. Med. 2006, 55, 836). For each sample, the MTRasym was measured at the imino resonance frequency for CEST saturation fields of 43, 85, 128, 170, 213, 255, 340, and 426 Hz while the saturation pulse duration was kept constant at 4000 ms. The Bloch equations were then fit numerically to these MTRasym values using MATLAB (Mathworks), and the exchange rates (kex, s^−1) were determined from the fits. Errors (95% confidence limits) were estimated using the F statistic.

[3] = In vitro CEST-MRI of thymidine analogues at 11.7 T; type: physicochemical; conditions: pH 7.4, 37° C.
Method: All compounds were dissolved at a concentration of 20 mM in phosphate-buffered saline (PBS) (pH=7.4) and placed in microcapillaries, as described previously.^17 CESTMRI experiments were performed on a vertical 11.7 T scanner (Bruker Avance system) at 37° C. A modified RARE sequence (TR/TE=10 000/9.4 ms; RARE factor=16; 1 mm slice thickness; FOV=11×11 mm^2; matrix size=64×32; resolution=0.17×0.34 mm^2; and NA=2) including a magnetization transfer (MT) module ([…]) was used to acquire CEST-weighted images from −8 to +8 ppm with increments of 0.2 ppm around the water resonance, which was assigned to be at 0 ppm. Pixel-based B0 correction was used as described before using the same parameters as above except for TR=1500 ms and B1/tsat=21 Hz/500 ms, with a sweep range from −2 to +2 ppm (0.1 ppm steps). Data processing was performed using custom-written scripts in MATLAB (Mathworks). Mean CEST spectra were plotted from an ROI for each sample, after B0 correction. MTRasym=100×(S^−Aω−S^AωA/^‘−’0)/3 was computed at different offsets Aω.

[4] = In vitro CEST imaging on a clinical 3 Tesla MRI scanner; type: physicochemical; conditions: 3.0 T, 20 mM, pH 7.4, room temperature
Method: Experiments were performed on a 3.0 Tesla Philips Achieva system (Philips Healthcare, Best, The Netherlands) using a body coil for transmit and a small animal solenoid coil for reception. CEST data were collected using a pulsed acquisition scheme (Jones, C. K. et al. Magn Reson Med 2011) with a 25 ms, 164 Hz frequency selective saturation pulse followed by a partial EPI readout (EPI factor 3). This TR interval was repeated until a 3D volume was acquired with 5 slices (slice thickness of 10 mm) across a field of view of 48×45 mm^2 (in plane resolution of 0.75 mm×0.9 mm) The acquisition per irradiation frequency consisted of TR/TE=65/5.5 ms and 4 averages. A total of 64 images were acquired which included an unsaturated volume and 63 saturated volumes with equally spaced frequency offsets between ±10 ppm (relative to the water frequency). The total acquisition time was 26 min 38 s. The experiments for B0 correction (Kim, M. et al. Magn Reson Med 2009, 61, 1441) were run the same except that 40 Hz frequency selective saturation pulse was used. Data processing was performed as described herein.

[5] = at 5 ppm for 20 nM agent (so in the source)

C[C@H]1CN([C@H]2C[C@H](O)[C@@H](CO)O2)C(=O)NC1=O [Compound 1, (5S)-5,6-dihydrothymidine]
pKa values of the imino proton obtained from the literature [1]: 11.6^43 | kex of the imino proton [2]: 0.8±0.2×10^3 s^−1 | kex, quantified exchange rates of imino and water protons ([2]; 5 ppm for 1-3, 6 ppm for dT): 0.8 ± 0.2 ×10^3 s^−1 | MTRasym (8.5 Hz) [3, 5]: 6% | MTRasym (170 Hz) [3, 5]: 18% | MTRasym (213 Hz) [3, 5]: 19% | MTRasym (128 Hz) ([3]; at 5 ppm for 20 mM agent): 14% | MTRasym value at 5 ppm, higher compared to dT [4]: 40%

Reference: patent US20160082133A1, “CHEMICAL EXCHANGE SATURATION TRANSFER (CEST) BASED MRI USING REPORTER GENES AND SUBSTRATES AND METHODS THEREOF” (The Johns Hopkins University, priority 2013, published 2016)
